{
  "source": "patent US12697326B2",
  "about": "“Methods of treating hepatic encephalopathy” (SALIX PHARMACEUTICALS, INC., priority 2008, dated 2026)",
  "key": {"[1]": {"system": "blood ammonia concentration in subjects with HE", "assay": "Blood (venous) ammonia concentration, change from baseline, first study", "format": "in vivo, human", "conditions": "ITT, change from baseline to end of treatment", "experimental": "Venous blood samples (10 mL) were collected and ammonia concentrations were obtained by methods known in the art.\n(§1) Mean values and mean changes from baseline in blood ammonia concentration and critical flicker frequency values were collected. Analyses of blood ammonia concentrations and critical flicker frequency values were based upon quantitative values (not qualitative grades). Treatment differences for mean change from baseline in these parameters was estimated using a mixed effects model with fixed effects for time and baseline value.\nTable 22 summarizes changes from baseline to end of treatment in venous ammonia level by treatment group in the first study."}, "[2]": {"system": "critical flicker frequency in subjects with HE", "assay": "Critical flicker frequency (CFF) test, change from baseline, first study", "format": "in vivo, human", "experimental": "The critical flicker frequency (CFF) was assessed for each subject using a specialized CFF instrument. The CFF is the frequency at which the subject observes a constant light transition to a flickering light and is measured in Hertz (Hz). CFF is an objective assessment of mental status.\nThe CFF was measured on a continuous scale and was the mean of 8 separate fusion-to-flicker transition tests performed in rapid succession.\nas §1\nA critical flicker frequency (CFF) assessment, a recognized quantitative measure of CNS dysfunction, was an efficacy endpoint in the first study. CFF tests utilize the correlation between cerebral processing of oscillatory visual stimuli and CNS impairment due to increased HE severity.^10,11,12,13 This test identifies a frequency at which a flickering light is perceived as steady. A decline in this frequency has been associated with increasing severity of HE. Likewise, elevation in blood ammonia, another endpoint in the first study, is a quantitative assessment associated with the CNS effects underlying overt HE."}, "[3]": {"system": "HE-caused hospitalization in subjects with HE", "assay": "HE-caused hospitalization, first study", "format": "in vivo, human", "source_text": "FIG. 5 illustrates time to first HE-caused hospitalizations by treatment group in the first study. […] Note for FIG. 10, the survival distribution estimate on y-axis represents the proportion of subjects without HE-caused hospitalizations. Dashed line represents rifaximin group and solid line represents placebo group. Open circles and open triangles represent censored subjects. Subjects who discontinued prior to hospitalization were censored at the time of discontinuation."}, "[4]": {"system": "breakthrough overt HE episode in subjects with HE", "assay": "Breakthrough overt HE episodes, second study (open-label treatment extension)", "format": "in vivo, human", "experimental": "Unlike the first study, subjects were not required to withdraw from the study after experiencing a breakthrough overt HE episode.\nConn scores and asterixis grades were assessed during the course of the study.\nTherefore, the incidence of breakthrough overt HE over time during rifaximin therapy was evaluated. Table 24 presents breakthrough overt HE episodes by total number of HE episodes during the course of the study."}, "[5]": {"system": "subjects with HE", "assay": "Treatment-emergent adverse events, second study", "format": "in vivo, human", "source_text": "At the time of this interim analysis, TEAEs were reported in 230 subjects (86.5%). The most common TEAEs (e.g., in ≥10% of total subjects) experienced by subjects were the following: peripheral edema (15.8%); urinary tract infection and nausea (12.8% each); and abdominal pain and ascites (10.5% each).\nTreatment-emergent SAEs were experienced by 47.4% of subjects."}, "[6]": {"system": "patients with HE", "conditions": "6-month study; rifaximin 1200 mg/day, neomycin 3 g/day; 14 days on, 14 days off per month; cited from earlier work"}, "[7]": {"conditions": "550 mg BID, Baseline to Day 140"}, "[8]": {"conditions": "Continuing Rifaximin N = 70, second study"}, "[9]": {"conditions": "New Rifaximin N = 196, second study"}, "[10]": {"conditions": "Rifaximin N = 266 (all rifaximin), second study"}, "[11]": {"conditions": "first study placebo subjects crossed over to rifaximin in second study"}, "[12]": {"conditions": "second study, all rifaximin, up to 680 days"}, "[13]": {"conditions": "second study, continuing rifaximin group, up to 680 days"}, "[14]": {"conditions": "second study, new rifaximin group, up to 680 days"}},
  "data": [
    {"smiles": "CO[C@H]1/C=C/O[C@@]2(C)Oc3c(C)c(O)c4c(O)c(c5c(nc6cc(C)ccn65)c4c3C2=O)NC(=O)/C(C)=C\\C=C\\[C@H](C)[C@H](O)[C@@H](C)[C@@H](O)[C@@H](C)[C@H](OC(C)=O)[C@@H]1C", "note": "[Rifaximin]", "values": [
      {"measurement": "Mean (SD) change in ammonia level", "setting": "[1]", "result": "−5.7 (46.77) μg/dL"},
      {"measurement": "Change from Baseline in Critical Flicker Frequency Test, Max", "setting": "[2]; [7]", "result": 12, "unit": "Hz"},
      {"measurement": "Change from Baseline in Critical Flicker Frequency Test, Mean", "setting": "[2]; [7]", "result": 1.4, "unit": "Hz"},
      {"measurement": "Change from Baseline in Critical Flicker Frequency Test, Median", "setting": "[2]; [7]", "result": 1.5, "unit": "Hz"},
      {"measurement": "Change from Baseline in Critical Flicker Frequency Test, Min", "setting": "[2]; [7]", "result": "−15", "unit": "Hz"},
      {"measurement": "Change from Baseline in Critical Flicker Frequency Test, Max", "setting": "[2]; 550 mg BID, Baseline to EOT", "result": 11, "unit": "Hz"},
      {"measurement": "Change from Baseline in Critical Flicker Frequency Test, Mean", "setting": "[2]; 550 mg BID, Baseline to EOT", "result": 0.9, "unit": "Hz"},
      {"measurement": "Change from Baseline in Critical Flicker Frequency Test, Median", "setting": "[2]; 550 mg BID, Baseline to EOT", "result": 0.1, "unit": "Hz"},
      {"measurement": "Change from Baseline in Critical Flicker Frequency Test, Min", "setting": "[2]; 550 mg BID, Baseline to EOT", "result": "−14", "unit": "Hz"},
      {"measurement": "Critical Flicker Frequency Test, Max", "setting": "[2]; 550 mg BID, Day 140", "result": 49, "unit": "Hz"},
      {"measurement": "Critical Flicker Frequency Test, Min", "setting": "[2]; 550 mg BID, Day 140", "result": 27, "unit": "Hz"},
      {"measurement": "Critical Flicker Frequency Test, Max", "setting": "[2]; 550 mg BID, EOT", "result": 49, "unit": "Hz"},
      {"measurement": "Critical Flicker Frequency Test, Median", "setting": "[2]; 550 mg BID, EOT", "result": 37.8, "unit": "Hz"},
      {"measurement": "Critical Flicker Frequency Test, Min", "setting": "[2]; 550 mg BID, EOT", "result": 25, "unit": "Hz"},
      {"measurement": "Mean changes (±SD) in CFF results", "setting": "[2]; first study, rifaximin group, baseline to end of treatment", "result": "0.945 (±4.75)"},
      {"measurement": "reduction in risk of HE-caused hospitalization compared with placebo", "setting": "[3]; 6-month treatment period", "result": 56, "unit": "%"},
      {"measurement": "HE-caused hospitalization rate", "setting": "[3]; rifaximin group", "result": 0.30, "unit": "events/PEY"},
      {"measurement": "subjects with HE-caused hospitalizations (of 140)", "setting": "[3]; rifaximin group", "result": 15},
      {"measurement": "Subjects with total number of HE episodes during the study: 1, %", "setting": "[4]; [8]", "result": "(14.3) %"},
      {"measurement": "Subjects with total number of HE episodes during the study: 2, %", "setting": "[4]; [8]", "result": "(8.6) %"},
      {"measurement": "Subjects with total number of HE episodes during the study: 4, %", "setting": "[4]; [8]", "result": "(1.4) %"},
      {"measurement": "Subjects with total number of HE episodes during the study: 6, %", "setting": "[4]; [8]", "result": "(1.4) %"},
      {"measurement": "Subjects with ≥1 breakthrough overt HE episode, %", "setting": "[4]; [8]", "result": "(25.7) %"},
      {"measurement": "Subjects with total number of HE episodes during the study: 1, %", "setting": "[4]; [9]", "result": "(17.3) %"},
      {"measurement": "Subjects with total number of HE episodes during the study: 2, %", "setting": "[4]; [9]", "result": "(6.1) %"},
      {"measurement": "Subjects with total number of HE episodes during the study: 3, %", "setting": "[4]; [9]", "result": "(2.0) %"},
      {"measurement": "Subjects with total number of HE episodes during the study: 4, %", "setting": "[4]; [9]", "result": "(0.5) %"},
      {"measurement": "Subjects with total number of HE episodes during the study: 5, %", "setting": "[4]; [9]", "result": "(0.5) %"},
      {"measurement": "Subjects with total number of HE episodes during the study: 10, %", "setting": "[4]; [9]", "result": "(1.0) %"},
      {"measurement": "Subjects with ≥1 breakthrough overt HE episode, %", "setting": "[4]; [9]", "result": "(27.6) %"},
      {"measurement": "Subjects with total number of HE episodes during the study: 1, value in parentheses", "setting": "[4]; [10]", "result": "(16.5) 90"},
      {"measurement": "Subjects with total number of HE episodes during the study: 2, value in parentheses", "setting": "[4]; [10]", "result": "(6.8) 90"},
      {"measurement": "Subjects with total number of HE episodes during the study: 3, value in parentheses", "setting": "[4]; [10]", "result": "(1.5) 90"},
      {"measurement": "Subjects with total number of HE episodes during the study: 4, value in parentheses", "setting": "[4]; [10]", "result": "(0.8) 90"},
      {"measurement": "Subjects with total number of HE episodes during the study: 5, value in parentheses", "setting": "[4]; [10]", "result": "(0.4) 90"},
      {"measurement": "Subjects with total number of HE episodes during the study: 6, value in parentheses", "setting": "[4]; [10]", "result": "(0.4) 90"},
      {"measurement": "Subjects with total number of HE episodes during the study: 10, value in parentheses", "setting": "[4]; [10]", "result": "(0.8) 90"},
      {"measurement": "Subjects with ≥1 breakthrough overt HE episode, value in parentheses", "setting": "[4]; [10]", "result": "(27.1) 90"},
      {"measurement": "reduction in risk of breakthrough overt HE during rifaximin treatment vs prior placebo experience", "setting": "[4]; [11]", "result": 70, "unit": "%"},
      {"measurement": "subjects with breakthrough overt HE during rifaximin treatment (of 82)", "setting": "[4]; [11]", "result": 15},
      {"measurement": "subjects with 3 or more breakthrough HE episodes", "setting": "[4]; second study", "result": "Ten"},
      {"measurement": "proportion of subjects with breakthrough overt HE", "setting": "[4]; [12]", "result": 27.1, "unit": "%"},
      {"measurement": "subjects with breakthrough overt HE (of 266)", "setting": "[4]; [12]", "result": 72},
      {"measurement": "proportion of subjects with breakthrough overt HE", "setting": "[4]; [13]", "result": 25.7, "unit": "%"},
      {"measurement": "subjects with breakthrough overt HE (of 70)", "setting": "[4]; [13]", "result": 18},
      {"measurement": "proportion of subjects with breakthrough overt HE", "setting": "[4]; [14]", "result": 27.6, "unit": "%"},
      {"measurement": "subjects with breakthrough overt HE (of 196)", "setting": "[4]; [14]", "result": 54},
      {"measurement": "subjects experiencing at least 1 TEAE judged to be severe", "setting": "[5]", "result": 40.2, "unit": "%"},
      {"measurement": "subjects with treatment-emergent SAEs", "setting": "[5]", "result": 47.4, "unit": "%"},
      {"measurement": "subjects with HE counted for the safety analyses", "setting": "[5]; 57 subjects", "result": 21.4, "unit": "%"},
      {"measurement": "incidence of TEAEs considered related to study drug", "setting": "[5]; continuing rifaximin group", "result": 7.1, "unit": "%"},
      {"measurement": "TEAE abdominal pain, subjects", "setting": "[5]; interim analysis", "result": 10.5, "unit": "%"},
      {"measurement": "TEAE ascites, subjects", "setting": "[5]; interim analysis", "result": 10.5, "unit": "%"},
      {"measurement": "TEAE nausea, subjects", "setting": "[5]; interim analysis", "result": 12.8, "unit": "%"},
      {"measurement": "TEAE peripheral edema, subjects", "setting": "[5]; interim analysis", "result": 15.8, "unit": "%"},
      {"measurement": "TEAE urinary tract infection, subjects", "setting": "[5]; interim analysis", "result": 12.8, "unit": "%"},
      {"measurement": "subjects with TEAEs", "setting": "[5]; interim analysis, 230 subjects", "result": 86.5, "unit": "%"},
      {"measurement": "incidence of TEAEs considered related to study drug", "setting": "[5]; new rifaximin group", "result": 7.7, "unit": "%"},
      {"measurement": "efficacy in patients with HE, rifaximin versus neomycin", "setting": "[6]", "result": "comparable efficacy"}
    ]}
  ]
}
